The text below walks through data of ChEMBL document CHEMBL1201862, “PubChem BioAssay data set” (2004).

Each structure is given as a SMILES string.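 A five-concentration, 48-hour dose response in 96-well plates underlies each endpoint, interpolated linearly between surrounding concentrations. GI50 = concentration required for 50% inhibition of growth.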 Activity calls are given as the source filed them. No stated cut-off is given here; in the data, active = GI50 up to about 1.1 µM and inactive = higher.

Some test systems named below: 786-0; CAKI-1; HCC 2998; HL-60; K562; KM12; M14; Malme-3M; NCI-H460; OVCAR-4; PC-3; SF-295; SF-539; SK-MEL-2; SK-OV-3; UACC-257; UACC-62; UO-31; LXFL 529.
Common to all, as to experiment: growth of human tumour cells (NCI), 48 h

As for `Clc1ccc(C2=C(c3ccccc3)C(c3ccc(Cl)cc3)N3C(=N[C@H]4CCCC[C@@H]43)N2)cc1` (some centres not stated), the GI50 with 786-0 is 14.7 µM (inactive); in the test on CAKI-1 it was 16.1 µM (inactive); in the test with HCC 2998 it was 3.08 µM (inactive); in the test with HL-60, 3.19 µM (inactive); with K562, 2.3 µM (inactive); in the test with KM12, 9.4 µM (inactive). For the same compound, the GI50 in the test on M14 was 12.4 µM (inactive); in the test on Malme-3M, 16.5 µM (inactive); in the test with NCI-H460, 2.99 µM (inactive); with OVCAR-4, 9.2 µM (inactive); with PC-3, 10.2 µM (inactive); in the test on SF-295, 11.6 µM (inactive). The GI50 with SF-539 was 15.3 µM (inactive); in the test on SK-MEL-2, 16.4 µM (inactive); in the test with SK-OV-3 it was 17.1 µM (inactive); in the test on UACC-257, 14.9 µM (inactive); in the test on UACC-62, 16.7 µM (inactive); in the test on UO-31, 13.6 µM (inactive).
`N#Cc1nn(-c2ccc(Cl)cc2)c(=N)c2c(N)n3nc(-c4ccccc4)cc3nc12`: the GI50 is 38.5 µM (inactive) in the test with 786-0; 1 µM (active) in the test on CAKI-1; < 0.01 µM (active) in the test on HCC 2998; > 100 µM (inactive) in the test on HL-60; 1 µM (active) in the test on K562; < 0.01 µM (active) in the test on KM12. Moreover, the GI50 in the test with LXFL 529 is 0.705 µM (active); in the test on M14 it was 1 µM (active); in the test with Malme-3M, 1 µM (active); with NCI-H460, 1 µM (active); in the test with OVCAR-4, 0.857 µM (active); in the test with SF-295, 0.681 µM (active). Moreover, the GI50 in the test with SF-539 is 0.497 µM (active); in the test on SK-MEL-2, 1 µM (active); in the test on SK-OV-3, 0.472 µM (active); with UACC-257, 1 µM (active); in the test on UACC-62 it was 1 µM (active).
Turning to `CC1(C)Oc2ccccc2OC1O` (configuration not stated), the GI50 in the test on 786-0, in the test on CAKI-1, in the test on HCC 2998, in the test on HL-60, with K562 and with KM12 was > 100 µM (inactive) each time. For the same compound, the GI50 in the test with M14, in the test with Malme-3M, with NCI-H460, in the test with OVCAR-4, with PC-3 and in the test with SF-295 was > 100 µM (inactive) throughout. Moreover, the GI50 in the test with SF-539, in the test on SK-MEL-2, with SK-OV-3, in the test on UACC-257, in the test with UACC-62 and in the test with UO-31 was > 100 µM (inactive) each time.
With `CCOP1(=O)C=C(C)C(=C(Cl)Cl)C(C)=C1` (configuration not stated), the GI50 in the test on 786-0 was 23.7 µM (inactive); in the test on CAKI-1 it was 11.6 µM (inactive); with HCC 2998 it was 14.6 µM (inactive); with HL-60, 3.33 µM (inactive); in the test with K562, 3.52 µM (inactive); with KM12 it was 1.71 µM (inactive). The GI50 with LXFL 529 was 3.78 µM (inactive); in the test with M14 it was 8.32 µM (inactive); with Malme-3M it was 17.1 µM (inactive); in the test with NCI-H460, 17.5 µM (inactive); in the test on OVCAR-4 it was 15.2 µM (inactive); with SF-295, 6.24 µM (inactive). Further, the GI50 in the test with SF-539 was 18.1 µM (inactive); with SK-MEL-2, 3.72 µM (inactive); in the test on SK-OV-3 it was 35.1 µM (inactive); in the test on UACC-257, 3.54 µM (inactive); in the test with UACC-62, 6.46 µM (inactive); with UO-31, 13.9 µM (inactive).
Take `Cc1ccc([N+](=O)[O-])cc1S(=O)(=O)Nc1ccc(C(=O)/C=C/c2ccccc2)cc1`: the GI50 in the test on 786-0 is 16.7 µM (inactive); with CAKI-1 it was 22.2 µM (inactive); in the test with HCC 2998 it was 17.7 µM (inactive); with HL-60, 25.3 µM (inactive); in the test on K562, 4.79 µM (inactive); in the test on KM12 it was 16.7 µM (inactive). Also, the GI50 was 20 µM (inactive) in the test with M14; 18.5 µM (inactive) with Malme-3M; 18.1 µM (inactive) in the test with NCI-H460; 1.96 µM (inactive) in the test on OVCAR-4; 15.6 µM (inactive) with PC-3; 20.3 µM (inactive) with SF-295. For the same compound, the GI50 is 30.5 µM (inactive) in the test with SF-539; 19.1 µM (inactive) in the test with SK-MEL-2; 31.3 µM (inactive) in the test on SK-OV-3; 17.3 µM (inactive) in the test on UACC-257; 13.2 µM (inactive) in the test on UACC-62; 18.4 µM (inactive) in the test with UO-31.
Consider `O=C(NO)c1cccc(OCc2ccc(Br)cc2)c1`, for which the GI50 in the test with 786-0 is 2.92 µM (inactive); with CAKI-1, 3.11 µM (inactive); in the test with HCC 2998 it was 7.52 µM (inactive); with HL-60 it was 3.01 µM (inactive); in the test on K562, 3.6 µM (inactive); in the test on KM12 it was 5.4 µM (inactive). Further, the GI50 with M14 was 2.79 µM (inactive); in the test on Malme-3M it was 2.37 µM (inactive); with NCI-H460, 3.06 µM (inactive); in the test on OVCAR-4, 5.24 µM (inactive); in the test with PC-3, 5.89 µM (inactive); in the test with SF-295, 4.79 µM (inactive). Further, the GI50 in the test on SF-539 was 4.72 µM (inactive); in the test with SK-MEL-2, 11.3 µM (inactive); in the test on SK-OV-3 it was 5.21 µM (inactive); with UACC-257 it was 10.5 µM (inactive); in the test on UACC-62 it was 4.15 µM (inactive); in the test with UO-31 it was 2.77 µM (inactive).
As for `Cc1ccc(S(=O)(=O)OC(COC(=O)c2ccccc2)C(OS(=O)(=O)c2ccc(C)cc2)C(OS(=O)(=O)c2ccc(C)cc2)C(COC(=O)c2ccccc2)OS(=O)(=O)c2ccc(C)cc2)cc1` (configuration not stated), the GI50 in the test on 786-0, with CAKI-1, with HCC 2998, in the test on HL-60, in the test on K562 and in the test with KM12 was > 100 µM (inactive) each time. Besides, the GI50 in the test on LXFL 529, in the test with M14, in the test on Malme-3M, in the test with NCI-H460, in the test with OVCAR-4 and with SF-295 was > 100 µM (inactive) each time. For the same compound, the GI50 in the test on SF-539 is > 100 µM (inactive); in the test with SK-MEL-2, > 100 µM (inactive); with SK-OV-3, > 10 µM (inactive); in the test with UACC-257, > 100 µM (inactive); in the test with UACC-62, > 10 µM (inactive); in the test with UO-31, > 100 µM (inactive).
For `CC1=C(O)C(=O)C=C2C1=CC=C1[C@@]2(C)CC[C@@]2(C)C3C[C@@H](C)C(=O)[C@@H](O)[C@]3(C)CC[C@]12C` (some centres not stated), the GI50 with 786-0 was 0.946 µM (active); with CAKI-1, 1.47 µM (inactive); in the test with HCC 2998 it was 2.95 µM (inactive); in the test with HL-60, 0.641 µM (active); with K562 it was 0.891 µM (active); in the test with KM12, 5.86 µM (inactive). Also, the GI50 in the test on M14 was 1.64 µM (inactive); in the test on Malme-3M, 1.97 µM (inactive); in the test with NCI-H460 it was 5.58 µM (inactive); in the test on OVCAR-4, 3.32 µM (inactive); with PC-3, 2.02 µM (inactive); with SF-295 it was 4.55 µM (inactive). Also, the GI50 in the test on SF-539 is 2.14 µM (inactive); with SK-MEL-2, 5.05 µM (inactive); in the test with SK-OV-3, 9.04 µM (inactive); in the test with UACC-257 it was 2.83 µM (inactive); in the test on UACC-62 it was 1.79 µM (inactive); in the test on UO-31, 1.92 µM (inactive).
With `CNn1c(C)n[nH]c1=O`, the GI50 in the test with 786-0, with CAKI-1, with HCC 2998, with HL-60, with K562 and in the test on KM12 was > 100 µM (inactive) in each case. Moreover, the GI50 in the test with M14 is > 100 µM (inactive); in the test with Malme-3M, 96.8 µM (inactive); in the test on NCI-H460, > 100 µM (inactive); in the test with OVCAR-4, > 100 µM (inactive); with PC-3, > 100 µM (inactive); in the test with SF-295, > 100 µM (inactive). In addition, the GI50 in the test on SF-539, in the test on SK-MEL-2, in the test with SK-OV-3, in the test on UACC-257, in the test on UACC-62 and with UO-31 was > 100 µM (inactive) throughout.
Consider `COC1=C(Br)[C@H](O)[C@@]2(C=C1Br)CC(C(=O)NCCCOc1c(Br)cc(C(O)CNC(C)=O)cc1Br)=NO2` (some centres not stated) [APLYSINAMISINE III], for which the GI50 with 786-0 was > 10 µM (inactive); in the test with CAKI-1, > 10 µM (inactive); in the test on HCC 2998 it was > 10 µM (inactive); in the test with HL-60, 2.19 µM (inactive); in the test on K562 it was 2.24 µM (inactive); with KM12, > 10 µM (inactive). Moreover, the GI50 with M14 is 8.73 µM (inactive); with Malme-3M, 6.03 µM (inactive); in the test with NCI-H460, > 10 µM (inactive); with OVCAR-4, > 10 µM (inactive); with PC-3, > 10 µM (inactive); in the test with SF-295, > 10 µM (inactive). The GI50 with SF-539 was > 10 µM (inactive); in the test on SK-MEL-2, 8.79 µM (inactive); in the test with SK-OV-3, > 10 µM (inactive); with UACC-257, > 10 µM (inactive); in the test with UACC-62, > 10 µM (inactive); in the test on UO-31, > 10 µM (inactive).
Regarding `CC1=C2C(=C[C@@](C)(CO)[C@@H]2O)C(=O)[C@](C)(O)C12CC2` [ILLUDIN], the GI50 with 786-0 is 0.00353 µM (active); with CAKI-1, 0.0158 µM (active); in the test with HCC 2998, 0.013 µM (active); with HL-60, 0.00427 µM (active); with K562, 0.012 µM (active); with KM12, 0.0212 µM (active). Moreover, the GI50 was 0.00891 µM (active) in the test with M14; 0.00889 µM (active) in the test with Malme-3M; 0.00147 µM (active) in the test on NCI-H460; 0.00667 µM (active) in the test on OVCAR-4; 0.0143 µM (active) with PC-3; 0.00251 µM (active) in the test with SF-295. The GI50 in the test with SF-539 is 0.00506 µM (active); in the test with SK-MEL-2, 0.0143 µM (active); in the test with SK-OV-3 it was 0.00612 µM (active); in the test with UACC-257, 0.0145 µM (active); in the test on UACC-62, 0.0129 µM (active); with UO-31 it was 0.0147 µM (active).
